pKd: −log10 of the molar value.
How the values were obtained:
[1] = molecular target: T1, PAI-1 (plasminogen activator inhibitor-1) (Homo sapiens, UniProt P05121); experiment: SPR (Biacore […], immobilized PAI-1); also CETSA in cell extract; prodrug that releases MCL; type: binding
T1 construct: gene SERPINE1; Recombinant human PAI-1

[2] = molecular target: T1, PAI-1 (plasminogen activator inhibitor-1); experiment: SPR (Biacore […], immobilized PAI-1); also CETSA/ITDR in cell extract; type: binding

T1 sequence (P05121 24-402): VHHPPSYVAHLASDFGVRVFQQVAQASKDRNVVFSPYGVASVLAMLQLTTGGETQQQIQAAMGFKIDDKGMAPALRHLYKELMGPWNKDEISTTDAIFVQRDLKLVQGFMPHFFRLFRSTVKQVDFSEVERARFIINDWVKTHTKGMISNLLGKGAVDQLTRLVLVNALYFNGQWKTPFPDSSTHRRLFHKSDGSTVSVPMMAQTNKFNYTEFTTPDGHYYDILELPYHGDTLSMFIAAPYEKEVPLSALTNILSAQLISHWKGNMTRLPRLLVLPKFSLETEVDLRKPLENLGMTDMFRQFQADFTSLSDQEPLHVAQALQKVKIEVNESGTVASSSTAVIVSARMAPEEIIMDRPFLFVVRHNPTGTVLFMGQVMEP

Row | pKd [2] | SMILES | pKd [1]
1 | – | CC1=C2CC[C@@](C)(O)[C@@H]2[C@H]2OC(=O)[C@@H](CN(C)C)[C@@H]2CC1 [ACT001] | 2.64
2 | 4.97 | C=C1C(=O)O[C@H]2[C@H]1CCC(C)=C1CC[C@@](C)(O)[C@@H]12 [MCL] | –
